Experimental data from patent US6340784B1, “Method for selective increase of the anticarcinogenic glucosinolates in Brassica sp” (Plant Bioscience Limited, priority 1998, dated 2002).
Read-outs that look alike come from different tables or passages of the source. Marks after values point to notes of the source that are not given here.

Tests used:
[1] = system: QR in murine hepatoma Hepa 1c1c7 cells; test: Induction of QR (quinone reductase, phase II enzyme) activity in Hepa 1c1c7 cells; assay type: cell-based; parameters: induction of QR (fold): unit of the concentration uncertain; settings: for CD: pure compound
Experimental: Extracts from the freeze-dried material were assessed for their induction activity in murine hepatoma Hepa 1c1c7 cells. Approximately 0.1 g of milled freeze-dried material was moistened by addition of water (2 ml), homogenised and left at room temperature for 1 hr with occasional mixing. Hot 70% (v/v) methanol (3 ml) was added and mixed thoroughly prior to incubation for 15 min at +70° C. The homogenates were cooled to room temperature and centrifuged for 5 min at 3000 r.p.m. Supernatants were removed and the volume decreased in a vacuum centrifuge to approximately one fifth of the initial volume. The resulting concentrates were filtered through sterile non-pyrogenic filters ([…]) and stored at −70° C. prior to testing. The concentrations of each extract were expressed as dry weight of original material to each ml of culture medium.
Induction was measured according to published methods (Tawfiq, N., Heaney, R. K., Plumb, J. A., Fenwick, G. R., Musk, S. R. R., & Williamson, G. (1995) Carcinogenesis 16, 1191-1194., Prochaska, H. J., & Santamaria, A. B. (1988) Anal. Biochem. 169, 328-336., Williamson, G., Plumb, G. W., Uda, Y., Price, K. R., & Rhodes, M. J. C. (1996) Carcinogenesis 17, 2385-2387.) with the following modifications. Each sample was analysed at eight concentrations using four replicates for each concentration. b-Napthoflavone was used as a positive control at a concentration of 0.2 mM. […] Each cultivar/hybrid was extracted on three occasions and analysed separately.

[2] = system: QR in murine hepatoma Hepa 1c1c7 cells; settings: literature value, See Zhang (2), cited from earlier work
[3] = assuming 100% conversion of glucosinolate to isothiocyanate, from plant extracts

| Structure (SMILES) | apparent CD value [1, 3] [mM] | CD value for synthetic isothiocyanate [2] | induction of QR (fold) ([1]; at 1.6 (unit uncertain)) | ability to induce QR activity (in words) ([1]; extracts or compound, cultivar extracts 0.001 mg/ml to 0.125 mg/ml) | CD [1] [mM] | apparent CD value ([1]; synthetic compound, positive control) [mM] | CD value for synthetic isothiocyanate ([2]; listed as 4-methylsulfinylbutyl) [µM] | induction of QR (fold) ([1]; positive control at 0.2 (unit uncertain)) |
| --- | --- | --- | --- | --- | --- | --- | --- | --- |
| C[S+]([O-])CCCN=C=S (stereo not drawn) [3-methylsulfinylpropyl isothiocyanate] | 0.5 | 2.4 µM |  |  |  |  |  |  |
| CSCCCN=C=S [3-methylthiopropyl isothiocyanate] | 1.6 | 3.5 µM |  |  |  |  |  |  |
| C[S+]([O-])CCCCN=C=S (stereo not drawn) [Synthetic sulforaphane, 4-methylsulfinylbutyl isothiocyanate] |  | 0.4-0.8§ μM | three-fold | potent inducer | 0.4 | 0.0003 | 0.4 to 0.8 |  |
| O=c1cc(-c2ccccc2)oc2ccc3ccccc3c12 [b-Napthoflavone] |  |  |  |  | 0.02 |  |  | three-fold |
